Molecular target: BthII1283 (Burkholderia thailandensis, UniProt Q2T5S0)

Cn1c(=O)[nH]c2nncnc2c1=O [1-DMT]
HPLC and HRMS of methylation product: Reumycin (1-DMT) is converted to a single product with an identical retention time

Source: publication PMC6559721 (Biochemistry, 2017)
